Calls of active or inactive are those of the source. The calls are words filed in the database; no cut-off is given here.
How the values were obtained:
Mus musculus [1] = experiment: Antiinflammatory activity in formalin-induced nociception Swiss CD-1 mouse model assessed as time spent on licking or biting formalin injected right hind paw during neurogenic phase at 2.5 mg/kg, ip measured during phase 1 (reference value: 33 +/- 1.45 sec); type: functional
[2] = target: Transient receptor potential cation channel subfamily A member 1 (Homo sapiens) (UniProt O75762); experiment: Antagonist activity at human TRPA1 expressed in HEK293 cells assessed as decrease in flufenamic acid-evoked increase in intracellular calcium level at 10 uM measured for 180 secs with 1 sec interval by Fluo4-AM dye-based fluorescence assay relative to control; type: cell-based
[3] = target: Transient receptor potential cation channel subfamily A member 1 (Homo sapiens) (UniProt O75762); experiment: Antagonist activity at human TRPA1 expressed in HEK293 cells assessed as decrease in flufenamic acid-evoked increase in intracellular calcium level at 100 uM measured for 180 secs with 1 sec interval by Fluo4-AM dye-based fluorescence assay relative to control; type: cell-based
Rattus norvegicus [4] = experiment: Antiinflammatory activity in Wistar rat assessed as inhibition of LPS-induced TNF-alpha level at 50 mg/kg, ip measured at 1.5 hrs post dose by ELISA relative to control; type: functional
Mus musculus [5] = experiment: Antiinflammatory activity in formalin-induced nociception Swiss CD-1 mouse model assessed as time spent on licking or biting formalin injected right hind paw […] at 5 mg/kg, ip measured during phase 2 (reference value: 83.63 +/- 12.98 sec); type: functional
Rattus norvegicus [6] = experiment: Antiallodynic activity in Wistar rat assessed as reduction in oxaliplatin-induced neuropathic pain in early phase by measuring paw withdrawal force at 10 mg/kg, ip measured after 60 mins by Von Frey test; type: functional, organism-based
Rattus norvegicus [7] = experiment: Anti-inflammatory activity in Wistar rat assessed as inhibition of carrageenan-induced paw edema at 20 mg/kg, ip measured at 2 hrs post dose relative to control; type: functional
Mus musculus [8] = experiment: Antiinflammatory activity in formalin-induced nociception Swiss CD-1 mouse model assessed as time spent on licking or biting formalin injected right hind paw during neurogenic phase at 10 mg/kg, ip measured during phase 1 (reference value: 33 +/- 1.45 sec); type: functional
Rattus norvegicus [9] = experiment: Anti-inflammatory activity in Wistar rat assessed as inhibition of carrageenan-induced paw edema at 20 mg/kg, ip measured at 3 hrs post dose relative to control; type: functional
[10] = target: 3',5'-cyclic-AMP phosphodiesterase 4B (Homo sapiens, UniProt Q07343); experiment: Inhibition of recombinant human PDE4B using cAMP as substrate after 10 mins by PDE-Glo Phosphodiesterase Assay
[11] = Plasma concentration in Wistar rat model of LPS-induced inflammation at 50 mg/kg, ip measured at 1 hr post dose by HPLC method; type: ADME, organism-based
Mus musculus [12] = experiment: Antiinflammatory activity in formalin-induced nociception ip dosed Swiss CD-1 mouse model assessed as time spent on licking or biting formalin injected right hind paw […] measured during phase 2; type: functional; settings: Swiss CD-1, ip
Rattus norvegicus [13] = experiment: Antiallodynic activity in Wistar rat assessed as reduction in oxaliplatin-induced neuropathic pain in early phase by measuring paw withdrawal latency time at 1 to 10 mg/kg, ip measured after 60 secs by cold plate test; type: functional, organism-based
[14] = target: High affinity 3',5'-cyclic-AMP phosphodiesterase 7A (Homo sapiens, UniProt Q13946); experiment: Inhibition of recombinant human PDE7A using cAMP as substrate after 10 mins by PDE-Glo Phosphodiesterase Assay
Rattus norvegicus [15] = experiment: Antiallodynic activity in Wistar rat assessed as reduction in oxaliplatin-induced neuropathic pain in late phase by measuring paw withdrawal latency time at 1 to 10 mg/kg, ip measured after 60 secs by cold plate test; type: functional, organism-based
Rattus norvegicus [16] = experiment: Antiinflammatory activity in Wistar rat assessed as inhibition of LPS-induced TNF-alpha level at 50 mg/kg, ip measured at 2 hrs post dose by ELISA relative to control; type: functional
[17] = Plasma concentration in Wistar rat model of LPS-induced inflammation at 50 mg/kg, ip measured at 1.5 hrs post dose by HPLC method; type: ADME, organism-based
Rattus norvegicus [18] = experiment: Anti-inflammatory activity in Wistar rat assessed as inhibition of carrageenan-induced paw edema at 20 mg/kg, ip measured at 1 hr post dose relative to control; type: functional
Mus musculus [19] = experiment: Potency index, ratio of ED50 for HC-030031 to test compound ED50 for formalin-induced nociception ip dosed Swiss CD-1 mouse model assessed as time spent on licking or biting formalin injected right hind paw […] measured during phase 2; type: functional
[20] = target: Transient receptor potential cation channel subfamily A member 1 (Homo sapiens) (UniProt O75762); experiment: Antagonist activity at human TRPA1 expressed in HEK293 cells assessed as decrease in flufenamic acid-evoked increase in intracellular calcium level at 1 uM measured for 180 secs with 1 sec interval by Fluo4-AM dye-based fluorescence assay relative to control; type: cell-based
Rattus norvegicus [21] = experiment: Antiinflammatory activity in Wistar rat assessed as inhibition of LPS-induced TNF-alpha level at 50 mg/kg, ip measured at 1 hr post dose by ELISA relative to control; type: functional
Mus musculus [22] = experiment: Antiinflammatory activity in formalin-induced nociception Swiss CD-1 mouse model assessed as time spent on licking or biting formalin injected right hind paw during neurogenic phase at 5 mg/kg, ip measured during phase 1 (reference value: 33 +/- 1.45 sec); type: functional
[23] = Plasma concentration in Wistar rat model of LPS-induced inflammation at 50 mg/kg, ip measured at 2 hrs post dose by HPLC method; type: ADME, organism-based
Mus musculus [24] = experiment: Antiinflammatory activity in formalin-induced nociception Swiss CD-1 mouse model assessed as time spent on licking or biting formalin injected right hind paw during […] phase at 2.5 mg/kg, ip measured during phase 2 (reference value: 83.63 +/- 12.98 sec); type: functional
Rattus norvegicus [25] = experiment: Antiallodynic activity in Wistar rat assessed as reduction in oxaliplatin-induced neuropathic pain in early phase by measuring paw withdrawal force at 1 mg/kg, ip measured after 60 mins by Von Frey test; type: functional, organism-based
Mus musculus [26] = experiment: Antiinflammatory activity in formalin-induced nociception Swiss CD-1 mouse model assessed as time spent on licking or biting formalin injected right hind paw during neurogenic phase at 10 mg/kg, ip measured during phase 1 (reference value: 75.50 +/- 6.86 sec); type: functional
Mus musculus [27] = experiment: Antiinflammatory activity in formalin-induced nociception Swiss CD-1 mouse model assessed as time spent on licking or biting formalin injected right hind paw during […] phase at 10 mg/kg, ip measured during phase 2 (reference value: 143.60 sec); type: functional
Rattus norvegicus [28] = experiment: Antiinflammatory activity in Wistar rat assessed as inhibition of LPS-induced TNF-alpha level at 50 mg/kg, ip measured at 1 to 2 hrs post dose by ELISA relative to control; type: functional
Rattus norvegicus [29] = experiment: Antiallodynic activity in Wistar rat assessed as reduction in oxaliplatin-induced neuropathic pain in late phase by measuring paw withdrawal latency time at 5 mg/kg, ip measured after 60 secs by cold plate test; type: functional, organism-based
Rattus norvegicus [30] = experiment: Antiallodynic activity in Wistar rat assessed as reduction in oxaliplatin-induced neuropathic pain in late phase by measuring paw withdrawal latency time at 1 mg/kg, ip measured after 60 secs by cold plate test; type: functional, organism-based
Mus musculus [31] = experiment: Antiinflammatory activity in formalin-induced nociception Swiss CD-1 mouse model assessed as time spent on licking or biting formalin injected right hind paw […] at 5 mg/kg, ip measured during phase 2 (reference value: 143.60 sec); type: functional
Mus musculus [32] = experiment: Antiinflammatory activity in formalin-induced nociception Swiss CD-1 mouse model assessed as time spent on licking or biting formalin injected right hind paw during neurogenic phase at 2.5 mg/kg, ip measured during phase 1 (reference value: 75.50 +/- 6.86 sec); type: functional
Mus musculus [33] = experiment: Antiinflammatory activity in formalin-induced nociception Swiss CD-1 mouse model assessed as time spent on licking or biting formalin injected right hind paw during […] phase at 2.5 mg/kg, ip measured during phase 2 (reference value: 143.60 sec); type: functional
Rattus norvegicus [34] = experiment: Antiallodynic activity in Wistar rat assessed as reduction in oxaliplatin-induced neuropathic pain in early phase by measuring paw withdrawal force at 5 to 10 mg/kg, ip measured after 60 mins by Von Frey test; type: functional, organism-based
Mus musculus [35] = experiment: Antiinflammatory activity in formalin-induced nociception Swiss CD-1 mouse model assessed as time spent on licking or biting formalin injected right hind paw during neurogenic phase at 5 mg/kg, ip measured during phase 1 (reference value: 75.50 +/- 6.86 sec); type: functional
Rattus norvegicus [36] = experiment: Antiallodynic activity in Wistar rat assessed as reduction in oxaliplatin-induced neuropathic pain in late phase by measuring paw withdrawal force at 10 mg/kg, ip measured after 60 mins by Von Frey test; type: functional, organism-based

Transient receptor potential cation channel subfamily A member 1 (Homo sapiens), sequence (O75762 whole entry): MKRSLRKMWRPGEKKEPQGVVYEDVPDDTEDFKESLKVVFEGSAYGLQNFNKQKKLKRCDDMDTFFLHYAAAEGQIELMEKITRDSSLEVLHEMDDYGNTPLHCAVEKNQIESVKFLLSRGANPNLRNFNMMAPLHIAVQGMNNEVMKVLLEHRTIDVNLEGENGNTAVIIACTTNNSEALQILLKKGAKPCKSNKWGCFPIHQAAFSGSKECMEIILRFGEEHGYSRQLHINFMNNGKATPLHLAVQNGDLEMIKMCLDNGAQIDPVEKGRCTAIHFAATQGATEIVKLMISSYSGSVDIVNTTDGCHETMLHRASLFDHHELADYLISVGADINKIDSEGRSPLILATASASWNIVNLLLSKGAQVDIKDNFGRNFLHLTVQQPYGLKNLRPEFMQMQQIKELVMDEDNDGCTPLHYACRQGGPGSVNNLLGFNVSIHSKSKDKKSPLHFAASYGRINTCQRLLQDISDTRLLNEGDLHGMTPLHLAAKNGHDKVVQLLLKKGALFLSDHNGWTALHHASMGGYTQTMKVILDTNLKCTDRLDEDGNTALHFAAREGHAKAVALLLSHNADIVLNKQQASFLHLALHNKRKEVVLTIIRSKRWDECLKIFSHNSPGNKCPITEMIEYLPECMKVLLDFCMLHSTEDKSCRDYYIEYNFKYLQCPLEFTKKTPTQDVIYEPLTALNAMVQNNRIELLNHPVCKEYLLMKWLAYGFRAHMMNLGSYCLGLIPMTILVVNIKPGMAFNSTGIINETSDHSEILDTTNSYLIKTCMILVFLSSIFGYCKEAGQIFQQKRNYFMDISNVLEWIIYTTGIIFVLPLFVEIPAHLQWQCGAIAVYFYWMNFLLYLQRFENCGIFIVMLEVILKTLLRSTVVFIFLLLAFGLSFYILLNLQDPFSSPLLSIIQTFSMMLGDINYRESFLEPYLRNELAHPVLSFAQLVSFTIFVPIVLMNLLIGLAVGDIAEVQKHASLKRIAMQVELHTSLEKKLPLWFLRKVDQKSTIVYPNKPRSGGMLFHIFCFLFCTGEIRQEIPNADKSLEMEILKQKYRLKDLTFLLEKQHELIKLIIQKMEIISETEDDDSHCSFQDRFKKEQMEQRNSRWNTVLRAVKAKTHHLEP
3',5'-cyclic-AMP phosphodiesterase 4B, sequence (Q07343 whole entry): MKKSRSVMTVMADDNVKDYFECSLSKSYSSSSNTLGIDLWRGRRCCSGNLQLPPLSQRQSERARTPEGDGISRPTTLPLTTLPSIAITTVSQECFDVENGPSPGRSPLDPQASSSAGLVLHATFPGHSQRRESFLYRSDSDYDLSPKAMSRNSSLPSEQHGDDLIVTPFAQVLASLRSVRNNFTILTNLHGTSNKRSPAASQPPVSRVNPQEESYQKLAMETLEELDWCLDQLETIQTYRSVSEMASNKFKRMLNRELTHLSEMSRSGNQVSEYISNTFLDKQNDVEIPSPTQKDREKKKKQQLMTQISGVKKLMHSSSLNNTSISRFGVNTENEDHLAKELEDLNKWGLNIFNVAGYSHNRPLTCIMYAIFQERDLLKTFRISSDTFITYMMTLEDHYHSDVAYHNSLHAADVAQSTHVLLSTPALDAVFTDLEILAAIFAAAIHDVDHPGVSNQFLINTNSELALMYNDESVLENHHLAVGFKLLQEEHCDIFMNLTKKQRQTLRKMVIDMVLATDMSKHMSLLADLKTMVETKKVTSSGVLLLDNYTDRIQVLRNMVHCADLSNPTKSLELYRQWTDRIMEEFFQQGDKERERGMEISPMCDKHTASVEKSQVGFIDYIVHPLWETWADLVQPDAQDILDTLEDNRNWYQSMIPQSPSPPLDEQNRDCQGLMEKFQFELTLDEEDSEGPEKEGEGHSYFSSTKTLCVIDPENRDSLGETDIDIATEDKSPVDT
High affinity 3',5'-cyclic-AMP phosphodiesterase 7A, sequence (Q13946 whole entry): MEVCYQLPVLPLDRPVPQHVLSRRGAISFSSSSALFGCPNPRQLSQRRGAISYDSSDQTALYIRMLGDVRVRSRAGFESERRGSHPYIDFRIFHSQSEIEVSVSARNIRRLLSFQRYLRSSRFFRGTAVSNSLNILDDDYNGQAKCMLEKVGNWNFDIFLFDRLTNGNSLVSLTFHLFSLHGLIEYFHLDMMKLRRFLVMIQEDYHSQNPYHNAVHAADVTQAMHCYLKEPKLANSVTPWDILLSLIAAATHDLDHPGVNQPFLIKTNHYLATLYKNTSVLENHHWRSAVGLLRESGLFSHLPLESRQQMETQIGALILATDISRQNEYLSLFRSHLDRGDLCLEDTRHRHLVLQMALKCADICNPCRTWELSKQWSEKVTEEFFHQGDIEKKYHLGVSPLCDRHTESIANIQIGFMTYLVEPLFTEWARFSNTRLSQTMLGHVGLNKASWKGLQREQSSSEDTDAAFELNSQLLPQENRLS

Row | inhibition [2] | inhibition [3] | IC50 [10] | concentration at 1 h [11] | IC50 [14] | concentration at 1.5 h [17] | inhibition [20] | concentration at 2 h [23] | Compound | inhibition in vivo at 20 mg/kg (Rattus norvegicus [7]) | inhibition in vivo at 20 mg/kg (Rattus norvegicus [9]) | ED50 (Mus musculus [12]) | inhibition in vivo at 20 mg/kg (Rattus norvegicus [18]) | Ratio ED50 (Mus musculus [19]) | further results
1 | 7% | 39% | 5.43 µM | 1980 nM | 5.07 µM | 740 nM | 6% | 290 nM | CCCCOc1nc2c(c(=O)n(C)c(=O)n2C)n1CCCC(=O)Nc1cc(C(C)(C)C)ccc1O | 79.7% | 33.5% | 3.44 mg/kg | 48% | 10 - 13 | Time (Mus musculus [1]): 32 s; inhibition in vivo at 50 mg/kg (Rattus norvegicus [4]): 90.2%; Time (Mus musculus [5]): 49.17 s; Activity (Rattus norvegicus [6]): Active; Time (Mus musculus [8]): 21.33 s; Activity (Rattus norvegicus [13]): Active; Activity (Rattus norvegicus [15]): Active; inhibition in vivo at 50 mg/kg (Rattus norvegicus [16]): 92%; inhibition in vivo at 50 mg/kg (Rattus norvegicus [21]): 85.4%; Time (Mus musculus [22]): 25.17 s; Time (Mus musculus [24]): 47.67 s
2 | 40% | 53% | > 200 µM | 2680 nM | > 200 µM | 2330 nM | 40% | 1950 nM | COc1nc2c(c(=O)n(C)c(=O)n2C)n1CC(=O)Nc1ccc(C(C)(C)C)cc1 | 18.7% | 30.6% | 2.49 mg/kg | 37.1% | 10 - 13 | Activity (Rattus norvegicus [25]): inactive; Time (Mus musculus [26]): 65.17 s; Time (Mus musculus [27]): 31.67 s; inhibition in vivo at 50 mg/kg (Rattus norvegicus [28]): 33 to 44%; Activity (Rattus norvegicus [29]): Active; Activity (Rattus norvegicus [30]): Active; Time (Mus musculus [31]): 48 s; Time (Mus musculus [32]): 69 s; Time (Mus musculus [33]): 72.6 s; Activity (Rattus norvegicus [34]): Active; Time (Mus musculus [35]): 86.33 s; Activity (Rattus norvegicus [36]): Active

From ChEMBL document CHEMBL4265944, “Novel amide derivatives of 1,3-dimethyl-2,6-dioxopurin-7-yl-alkylcarboxylic acids as multifunctional TRPA1 antagonists and PDE4/7 inhibitors: A new approach for the treatment of pain” (Eur J Med Chem, 2018)
